Data: US5474986A, “Method for treating galabiose-binding bacteria infections” (priority 1988, dated 1995)

Tested on: E. coli HB101/pPAP5 (agglutination of human erythrocytes)
Assay: Inhibition of haemagglutination (HA inhibition) of human erythrocytes by E. coli
Type: cell-based
Details: for IC50: Escherichia coli, Erythrocyte; for ΔΔG^o: ΔΔG°=RTlnKrel, Krel = IC50 ratio to compound 1; for Relative potency (%): in relation to compound 1, calculated from IC50; for inhibitory power (in words): haemagglutination inhibition, compared with the methyl galabioside / unmodified galabioside
Description: Bacterial strain HB101/pPAPS. Plasmid pPAP5 carries the pap gene cluster isolated from the uropathogenic E.coli isolate J96. The clone produces P pill that mediate agglutination of human erythrocytes by binding to the galabiose-containing P-blood group antigens present on the erythrocyte surface. The galabiose binding property resides in the PapG gene product which is present at the tip of the P pilus as a minor component.
HA of a 1% human P erythrocyte suspension in phosphate-buffered saline was determined for agar-grown organisms by suspending the bacteria to a Klett of 490 (ca 1×10^9 bacteria/mL). A sample of the bacterial suspension (25 μL) was serially diluted in microtiter plates containing 25 μL PBS in each well. An equal volume of erythrocyte suspension was added and after mixing, the plates were incubated at 4° C. for 18 h. The HA endpoint was defined as the dilution in the last well before erythrocyte buttons were formed. The titer was expressed as the reciprocal of the endpoint dilution.
The HA titer of the strains to be tested was determined as described above and the cells were diluted so that each strain gave a titer of 64. The concentration of each of the analogues 1-25 was adjusted to 100 mM and 25 μL of each analogue was serially diluted in microtiter plates containing 25 μL of PBS in each well. The bacterial suspension (25 μL; HA titer=64) was then added to each well. After incubation for 30 min at room temperature, human erythrocytes (1% suspension) were added by gentle mixing and the plates were incubated at 4° C. overnight. The endpoint was defined as the greatest dilution of the analogue (minimal concentration) that gave a 50% inhibition of the HA (IC50).
The IC50 -values given in the tables are mean values from 3 consecutive runs. The ratio of the IC50 -value for an inhibitor and compound 1 is the relative equilibrium constant, Krel. This value was used for the calculation of the difference free energy values (ΔΔG°) using the expression ΔΔG°=RTlnKrel. It should be stressed that the conclusions made here about the nature of the adhesin receptor is based on the assumption that all the inhibitors have similar over-all confirmations oriented in a similar way in the receptor side and that only one type of galablest-specific receptor is present in the adhesin.

[1] = Table 1, inhibition of agglutination of human erythrocytes by E. coli, mean of 3 consecutive runs
[2] = Table 2, footnote a: separate inhibition experiment where reference compound 1 showed IC50 = 0.0434 mM
[3] = Table 2, glycoside analogs, inhibition of agglutination of human erythrocytes by E. coli, mean of 3 runs
[4] = Table 2, relative to compound 1 (IC50 0.20 mM)
[5] = Table 2, in relation to compound 1 (IC50 0.20 mM)
[6] = Table 2, footnote a: separate experiment, relative to compound 1 IC50 = 0.0434 mM

Compound | IC50 [1] [µM] | IC50 [3] [µM] | ΔΔG^o (Table 1) [kcal/mol] | ΔΔG (kJmol^-1) [4] [kJmol^-1] | Relative potency (%) (Table 1) | Inhib. power (%) [5] [%] | also measured
CO[C@@H]1O[C@H](CO)[C@H](O[C@H]2O[C@H](CO)[C@H](O)[C@H](O)[C@H]2O)[C@H](O)[C@H]1O [Compound 1, Galα1-4GalβOMe, reference compound] | 200 | 200 | 0 | 0.00 |  |  | IC50 [2]: 43.4 µM
CO[C@H]1C[C@@H](O)[C@@H](O[C@H]2O[C@H](CO)[C@H](O)[C@H](O)[C@H]2O)[C@@H](CO)O1 [Compound 2] | 350 |  | 0.335 |  | 56 |  | 
CO[C@@H]1O[C@H](CO)[C@H](O[C@H]2O[C@H](CO)[C@H](O)[C@H](O)[C@H]2O)C[C@H]1O [Compound 3] | 1000 |  | 0.932 |  | 19 |  | 
CO[C@@H]1O[C@H](C)[C@H](O[C@H]2O[C@H](CO)[C@H](O)[C@H](O)[C@H]2O)[C@H](O)[C@H]1O [Compound 4] | 4200 |  | 1.7 |  | 4.7 |  | 
CO[C@@H]1O[C@H](CO)[C@H](O[C@@H]2C[C@@H](O)[C@@H](O)[C@@H](CO)O2)[C@H](O)[C@H]1O [Compound 5] | 2600 |  | 1.43 |  | 7.6 |  | 
CO[C@@H]1O[C@H](CO)[C@H](O[C@H]2O[C@H](CO)[C@H](O)C[C@H]2O)[C@H](O)[C@H]1O [Compound 6] | 6500 |  | 1.96 |  | 3.0 |  | 
CO[C@@H]1O[C@H](CO)[C@H](O[C@H]2O[C@H](CO)C[C@H](O)[C@H]2O)[C@H](O)[C@H]1O [Compound 7] | 10000 |  | 2.2 |  | 1.9 |  | 
CO[C@@H]1O[C@H](CO)[C@H](O[C@H]2O[C@H](C)[C@H](O)[C@H](O)[C@H]2O)[C@H](O)[C@H]1O [Compound 8] | 3700 |  | 1.63 |  | 5.3 |  | 
CO[C@@H]1O[C@H](CO)[C@H](O[C@H]2O[C@H](CO)[C@H](O)[C@H](O)[C@H]2O)[C@H](OC)[C@H]1O [Compound 9] | 1600 |  | 1.17 |  | 12 |  | 
COC[C@H]1O[C@@H](OC)[C@H](O)[C@@H](O)[C@H]1O[C@H]1O[C@H](CO)[C@H](O)[C@H](O)[C@H]1O [Compound 10] | > 25000 |  | > 2.63 |  | < 1 |  | 
CO[C@@H]1O[C@H](CO)[C@H](O[C@H]2O[C@H](CO)[C@H](O)[C@H](OC)[C@H]2O)[C@H](O)[C@H]1O [Compound 11, Methyl 4-O-(3-O-methyl-α-D-galactopyranosyl)-β-D-galactopyranoside] | 87 |  | -0.43 |  | 220 |  | inhibitory power (in words): marked increase in the inhibitory power
CO[C@@H]1O[C@H](CF)[C@H](O[C@H]2O[C@H](CO)[C@H](O)[C@H](O)[C@H]2O)[C@H](O)[C@H]1O [Compound 12] | 9300 |  | 2.15 |  | 2.1 |  | 
CO[C@@H]1O[C@H](CO)[C@H](O[C@H]2O[C@H](CO)[C@H](F)[C@H](O)[C@H]2O)[C@H](O)[C@H]1O [Compound 13] | 3500 |  | 1.6 |  | 5.6 |  | 
CO[C@@H]1O[C@H](CO)[C@H](O[C@H]2O[C@H](CF)[C@H](O)[C@H](O)[C@H]2O)[C@H](O)[C@H]1O [Compound 14] | 350 |  | 0.323 |  | 56 |  | 
CO[C@@H]1O[C@H](CO)[C@H](O[C@H]2O[C@H](CO)[C@H](O)[C@H](O)[C@H]2O)[C@H](C)[C@H]1O [Compound 15] | 390 |  | 0.382 |  | 50 |  | 
CC[C@@H]1[C@@H](O)[C@H](OC)O[C@H](CO)[C@@H]1O[C@H]1O[C@H](CO)[C@H](O)[C@H](O)[C@H]1O [Compound 16] | 3800 |  | 1.65 |  | 5.1 |  | 
CO[C@@H]1O[C@H](CO)[C@H](O[C@H]2O[C@H](CO)[C@@H](O)[C@H](O)[C@H]2O)[C@H](O)[C@H]1O [Compound 17] | 5100 |  | 1.82 |  | 3.8 |  | 
CCO[C@@H]1O[C@H](CO)[C@H](O[C@H]2O[C@H](CO)[C@H](O)[C@H](O)[C@H]2O)[C@H](O)[C@H]1O [Compound 18] |  | 130 |  | -0.9 |  | 150 | 
CC(C)CO[C@@H]1O[C@H](CO)[C@H](O[C@H]2O[C@H](CO)[C@H](O)[C@H](O)[C@H]2O)[C@H](O)[C@H]1O [Compound 19] |  | 87 |  | -1.8 |  | 220 | 
C[Si](C)(C)CCO[C@@H]1O[C@H](CO)[C@H](O[C@H]2O[C@H](CO)[C@H](O)[C@H](O)[C@H]2O)[C@H](O)[C@H]1O [Compound 20] |  | 49 |  | -3.2 |  | 400 | 
OCC(O)CO[C@@H]1O[C@H](CO)[C@H](O[C@H]2O[C@H](CO)[C@H](O)[C@H](O)[C@H]2O)[C@H](O)[C@H]1O (stereo partly shown) [Compound 21] |  | 130 |  | -0.9 |  | 150 | 
C[Si](C)(C)CCO[C@@H]1O[C@H](CO)[C@@H](O[C@@H]2O[C@H](CO)[C@H](O[C@H]3O[C@H](CO)[C@H](O)[C@H](O)[C@H]3O)[C@H](O)[C@H]2O)[C@H](O)[C@H]1O [Compound 22] |  | 260 |  | 0.7 |  | 75 | 
CO[C@H]1O[C@H](CO)[C@H](O[C@H]2O[C@H](CO)[C@H](O)[C@H](O)[C@H]2O)[C@H](O)[C@H]1O [Compound 23] |  | 2100 |  | 5.6 |  | 9.0 | 
OC[C@H]1O[C@H](O[C@@H]2[C@H](O)[C@@H](O)C(O)O[C@@H]2CO)[C@H](O)[C@@H](O)[C@H]1O (stereo partly shown) [Compound 24] |  | 1400 |  | 4.6 |  | 14 | 
OC[C@H]1O[C@H](O[C@@H]2[C@H](O)[C@@H](O)[C@H](OCCSCCCCCCCCCSCCO[C@@H]3O[C@H](CO)[C@H](O[C@H]4O[C@H](CO)[C@H](O)[C@H](O)[C@H]4O)[C@H](O)[C@H]3O)O[C@@H]2CO)[C@H](O)[C@@H](O)[C@H]1O [Compound 25] |  | 6.8 |  | -7.8 |  | 2900 | inhibitory power (in words): very high inhibitory power
CCO[C@@H]1O[C@H](CO)[C@@H](O[C@@H]2O[C@H](CO)[C@H](O)[C@H](O)[C@H]2O)[C@H](O)[C@H]1O [Compound 26, Galβ1-4GlcβOCH2 CH3, reference compound] |  | > 25000 |  | > 11 |  | < 1.0 | 
CCCCS(=O)(=O)CC(CO[C@@H]1O[C@H](CO)[C@H](O[C@H]2O[C@H](CO)[C@H](O)[C@H](O)[C@H]2O)[C@H](O)[C@H]1O)CS(=O)(=O)CCCC [Compound 27, 3-Butylsulfonyl-2-butylsulfonylmethylpropyl 4-O-α-D-galactopyranosyl-β-D-galactopyranoside] |  |  |  |  |  |  | IC50 [2]: 2.3 µM; Inhib. power (%) [6]: 1887%; ΔΔG (kJmol^-1) [6]: -6.8 kJmol^-1
CCS[C@@H]1O[C@H](CO)[C@H](O[C@H]2O[C@H](CO)[C@H](O)[C@H](O)[C@H]2O)[C@H](O)[C@H]1O [Compound 28, Ethyl 1-thio-4-O-(α-D-galactopyranosyl)-β-D-galactopyranoside] |  |  |  |  |  |  | IC50 [2]: 16.3 µM; Inhib. power (%) [6]: 266%; ΔΔG (kJmol^-1) [6]: -2.3 kJmol^-1
